Data on 1 molecule can be found in patent US8987217B2, “Modified saponins for the treatment of fungal infections” (The General Hospital Corporation, priority 2010, dated 2015).

In brackets after ≈: the same amount, converted by molar mass. Where two headings read alike, the source gives them in different places.

The test system of one data set is C. elegans. The data set is described as follows: toxicity to the nematode in dose response experiments. Conditions: dose response experiments, higher concentrations. The source says:
This assay allows simultaneous assessment of a compound's potential toxicity and the ability to promote the survival of the nematode in the presence of C. albicans, including modes of action not traditionally considered in antifungal assays such as impeding a fungal virulence factor or promoting host immune response. We performed a screen of 2,560 natural products representing a fraction of the Analyiticon Discovery compound collection (ac-discovery.com) housed at the Broad Institute of Harvard and MIT (Cambridge, Mass.). […] These natural products identified in the primary screen were retested and confirmed (FIG. 1; Table 1). […] Moreover, although the antifungal effects of some of these saponins have been reported (Sata et al., Biosci Biotechnol Biochem, 62:1904-1911 (1998); Ohtani et al., Phytochem, 33:83-86 (1993)), their efficacy against Candida spp. has not been studied.
Representatives of the saponins family are able to disrupt cellular membranes and the lytic activity on erythrocytes has been used as an assay for some saponins Francis et al., British Journal of Nutrition, 88:587-605 (2002)). This property is derived from the affinity of some saponins for binding cholesterol forming insoluble pores composed of the sterol and saponins (Bangham et al., Nature, 196:952-953(1962); Glauert et al., Nature, 196:953-955 (1962)). […] The dose-response experiments previously used to determine the EC50 and approximate the MIC can also indicate if the saponins maybe toxic to C. elegans and potentially to mammalian cells.

In a further data set the test system is C. albicans strains. Briefly: MIC by standard CLSI microdilution protocol M27-A. It is filed as cell-based. The method, then: Using the standard Clinical and Laboratory Standards Institute (CLSI) procedure, the in vitro MIC of these two compounds was determined on the following C. albicans strains: DAY185 (the standard strain used throughout the screen), two fluconazole-resistant strains of C. albicans, and an echinocandin-resistant strain of C. albicans (Table 2).
(§1) The minimal inhibitory concentration (MIC) was determined for strains DAY185, 98-145, 95-120 (White et al., Antimicrob Agents Chemother, 46:1704-1713 (2002)), and A15-10 (Garcia-Effron et al., Antimicrob Agents Chemother, 53:112-122 (2009)) spectrophotometrically using RPMI 1640 media (Mediatech, Inc.) following the standard CLSI microdilution protocol M27-A (National Committee for Clinical Laboratory Standards, Reference method for broth dilution susceptibility testing of yeasts. Tentative standard M27-A, Villanova, Pa. (1995)). Biofilm assays using identified compounds were conducted as previously described (Richard et al., Eukaryot Cell, 4:1493-1502 (2005)). The biofilm dry mass was determined by drying the silicone squares in a chemical hood, and weighing the resulting biofilm mass subtracting the previously weighed mass of the silicone square. Biofilm pictures were captured using a confocal laser microscope (TCS NT, Leica Microsystems). Cells were grown at 30° C., exposed to PS for 30 min, and then washed with PBS.
A general note: In broth dilution the organism is exposed to a series of concentrations in liquid medium.

The next data set concerns C. albicans cells. Briefly: photosensitizer uptake by fluorescence spectrofluorimetry. In kind it is cell-based. The following applies: addition of A16 to RB, ce6, PEI-ce6. The method, then: In order to confirm that the increase in phototoxicity observed by combining the different PS with A16 is actually due to an increase of cellular uptake of the PS by the cells and to document that the antifungal efficacy of saponins against C. albicans is associated with increased permeability, the amount of dye within the cell was measured by fluorescence spectrofluorimetry.
Cell suspensions (10^8 cells/mL) were incubated in the dark as above using the same concentrations as for the PDI assays measured as μM PS equivalent (final concentration in incubation medium). Incubations were carried out in triplicate. Cell suspensions were centrifuged (12000 rpm, 1 min) and washed twice in 1 mL sterile PBS. The cell pellet was dissolved in 1.5 mL 0.1 M NaOH/1% SDS for 24 h to yield a homogenous solution. Uptake was determined by measurement of fluorescence in black 96-well flat-bottom plates (Costar) in a final volume of 200 μL using a Spectramax Gemini spectrofluorimeter (Molecular Devices) at 400 nmex/580-700 nmem for ce6, PEI-ce6 and 552 nmex/555-620 nmem for RB. Uptake values were obtained as previously described (Tegos et al., Antimicrob Agents Chemother, 50:196-203(2006)).
The cellular uptake of dye can be expressed as molecules per cell by correlation of the extracted PS concentration with the number of C. albicans cells present.

The test system of the next data set is C. albicans biofilm. Briefly: biofilm formation on silicone pads (dry mass). It is filed as cell-based. The following applies: 10 μg/mL (below the MIC), compared with caspofungin. The method, then:
as §1, with “Biofilm pictures were captured using a confocal laser microscope (TCS NT, Leica Microsystems). Cells were grown at 30° C., exposed to PS for 30 min, and then washed with PBS.” left out
Caspofungin (Merck) served as a known antifungal compound control. In vitro hyphal inhibition was assessed by incubation of DAY185 in RPMI 1640 media at 37° C. […] The ability of the antifungal compound A16, at either 2 or 4 μg/mL, to induce osmotic stress was assessed using DAY185 grown in a 96 well microtiter plate containing RPMI 1640 media and NaCl, ranging in concentrations from 0-2 M in 0.25 M increments. The growth of the fungus was measured spectrophotometrically after 48 hours of growth at 35° C.

Consider `CC1CC[C@@]2(OC1)O[C@H]1CC3C4C[C@@H](O)C5C[C@@H](O[C@@H]6O[C@H](CO)[C@H](O[C@@H]7O[C@H](CO)[C@@H](O)[C@H](O[C@@H]8OC[C@@H](O)[C@H](O)[C@H]8O)[C@H]7O[C@@H]7O[C@H](CO)[C@@H](O)[C@H](O)[C@H]7O)[C@H](O)[C@H]6O)[C@H](O)C[C@]5(C)C4CC[C@]3(C)[C@H]1[C@@H]2C` (stereo partly drawn) [A16, Aginoside], for which, in the data set with C. elegans, the “toxicity to the nematode” value is given as “none of the concentrations used in the dose response experiment showed signs of toxicity”. Further, the MIC against C. albicans strains, against C. albicans strains (C. albicans DAY185) and in the data set with C. albicans strains (echinocandin-resistant strain A15) was 16 µg/mL (≈ 15 µM) each time. The “effect on uptake of PS by the cells” value in the data set with C. albicans cells was “dramatically increased the uptake of PS”. The biofilm formation entry in the data set with C. albicans biofilm is given as “able to inhibit biofilm formation”.

As usually defined, the MIC is the least concentration at which growth counts as inhibited.
